In brackets after ≈: the same amount, converted by molar mass. Activity calls are given as the source filed them. The calls are words filed in the database; no cut-off is given here.
Experiments:
[1] = tested on: Escherichia coli; test: Antibacterial activity against Escherichia coli ATCC 25922 at 100 ug after 24 hrs by agar plate diffusion assay; format: functional, organism-based
[2] = tested on: Bacillus subtilis; test: Antibacterial activity against Bacillus subtilis 168 at 100 ug after 24 hrs by agar plate diffusion assay; format: functional; settings: for zone of inhibition at 100 µg/disc: subsp. subtilis str. 168, 24 h, read-out: IZ
[3] = tested on: Spodoptera littoralis; test: Insecticidal activity against Spodoptera littoralis neonate larvae assessed as survival at 270 ppm in artificial diet after 6 days relative to control; format: functional
[4] = tested on: Staphylococcus aureus; test: Antibacterial activity against Staphylococcus aureus ATCC 25923 at 100 ug after 24 hrs by agar plate diffusion assay; format: functional; settings: ATCC 25923, 24 h, read-out: IZ
[5] = tested on: Spodoptera littoralis; test: Insecticidal activity against Spodoptera littoralis neonate larvae assessed as survival treated with artificial diet after 6 days; format: functional, organism-based

Molecule	Activity [1]	zone of inhibition at 100 µg/disc [2] [mm]	Activity [3] [%]	zone of inhibition at 100 µg/disc [4] [mm]	inhibition zone (IZ) ([2]; subsp. subtilis str. 168) [mm]	EC50 [5] [ppm]	LC50 ([5]; Spodoptera littoralis, 144 h) [µg/mL]
C/C=C(/C)C(=O)OCC1C2=C(C=CN1/C=C/C(C)=O)C(=O)C(C)=C(OC)C2=O (stereo not given)	inactive	15	50	15	–	–	–
C/C=C(/C)C(=O)OCc1nccc2c1C(=O)C(OC)=C(C)C2=O [RENIERONE]	inactive	15	60	14	–	–	–
GENTAMICIN	–	–	–	–	16	–	–
COC1=C(C)C(=O)c2ccnc(C)c2C1=O	inactive	12	93	9	–	35	521 (≈ 2400 µM)

Source: ChEMBL document CHEMBL1158258, “Bioactive Isoquinoline Quinone from an Undescribed Philippine Marine Sponge of the Genus Xestospongia” (J Nat Prod, 1996)
